For test [1] the following is noted: literature antibacterial activity, strain not stated; cited from earlier work.
Another test concerns the target E. coli ACC (Escherichia coli, UniProt P0A9Q5+P0ABD5+P24182). The experiment in a line: ACC activity fluorescence polarization assay. The class given is biochemical. Conditions: for IC50: IC50, fluorescence polarization assay, triplicate, ± SD; for Ki: Ki (apparent, Morrison equation), tight binding inhibitors (IC50 < 0.5 nM), fluorescence polarization assay.
The test system of another test is E. coli ΔtolC. The class given is cell-based.
For another test, the target named is ACC complex (Escherichia coli, UniProt P0A9Q5+P0ABD5+P24182). Briefly: Spin-column LC-MS/MS competition assay. The test is classed as binding, E. coli. The following applies: for dissociation from ACC with 1 and 3 together: 50 μM of 1 and 3 together added to ACC-inhibitor complex; for dissociation from ACC with 1 alone: 100 μM of 1 alone added to ACC-inhibitor complex.

Values after ≈ are worked out from the molar mass of the structure shown. “Also recorded” adds a separate entry of the source. Like-named read-outs stand apart in the source and are kept apart here.

Sequence of E. coli ACC (P0ABD5 whole entry): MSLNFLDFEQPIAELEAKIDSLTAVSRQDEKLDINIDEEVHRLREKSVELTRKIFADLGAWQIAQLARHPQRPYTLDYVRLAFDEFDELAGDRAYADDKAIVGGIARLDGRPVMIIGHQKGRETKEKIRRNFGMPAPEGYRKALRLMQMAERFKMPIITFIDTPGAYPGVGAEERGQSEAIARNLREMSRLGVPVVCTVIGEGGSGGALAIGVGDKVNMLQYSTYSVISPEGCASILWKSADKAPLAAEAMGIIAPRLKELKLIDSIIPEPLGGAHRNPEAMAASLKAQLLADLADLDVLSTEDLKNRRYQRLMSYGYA
Sequence of E. coli ACC (P0A9Q5 whole entry): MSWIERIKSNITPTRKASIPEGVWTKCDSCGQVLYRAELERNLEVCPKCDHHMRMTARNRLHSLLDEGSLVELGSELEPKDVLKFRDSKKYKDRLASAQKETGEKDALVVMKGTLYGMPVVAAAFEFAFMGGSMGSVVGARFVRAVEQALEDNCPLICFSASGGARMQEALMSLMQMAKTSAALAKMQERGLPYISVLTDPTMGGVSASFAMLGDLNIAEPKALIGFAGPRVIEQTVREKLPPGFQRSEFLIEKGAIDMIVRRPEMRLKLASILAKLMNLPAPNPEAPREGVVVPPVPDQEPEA
Sequence of ACC complex (P0A9Q5 whole entry): as above
Sequence of ACC complex (P0ABD5 whole entry): as the sequence (P0ABD5 whole entry) above

With `Nc1ncc(C(=O)N(Cc2ccccc2)Cc2ccccc2)o1` [Compound 2], the MIC in test [1] was > 64 µg/mL.

Consider `C/C=C/C=C/C(=O)N[C@@H](CC(=O)N[C@H](C(=O)[C@@H]1C(=O)NC(=O)[C@H]1C)C(C)C)c1ccccc1` [Compound 3, moiramide B, reference compound], for which, on E. coli ACC, the IC50 was 5 nM.

Turning to `C#CCCCCOCCOCCOCCOCCOCCOCCOc1cc(Br)c(-c2cc3cnc(N)nc3nc2N)c(Br)c1` [Compound 9c-p, 6-(2,6-dibromo-4-(3,6,9,12,15,18-hexaoxatetracos-23-yn-1-yloxy)phenyl)pyrido[2,3-d]pyrimidine-2,7-diamine], the IC50 at E. coli ACC was > 500 nM.

Consider `C#CCCCCOCCOCCOCCOCCOCCOCCOCCOCCOCCOCCOCCOCCOc1ccc(Br)c(-c2cc3cnc(N)nc3nc2N)c1Br` [Compound 9e, 6-(2,6-dibromo-3-(3,6,9,12,15,18,21,24,27,30,33,36-dodecaoxadotetracont-41-yn-1-yloxy)phenyl)pyrido[2,3-d]pyrimidine-2,7-diamine], for which the “MIC ΔtolC + PMBN” value in the test with E. coli ΔtolC (PMBN 6 μM (8 μg/mL)) worked out at 12.5 µM.

Consider `CC(C)[C@H](NC(=O)C[C@H](NC(=O)CCCCCCCCCCn1cc(CCCCOc2ccc(Br)c(-c3cc4cnc(N)nc4nc3N)c2Br)nn1)c1ccccc1)C(=O)[C@@H]1C(=O)NC(=O)[C@H]1C` [Compound 15, 11-(4-(4-(2,4-dibromo-3-(2,7-diaminopyrido[2,3-d]pyrimidin-6-yl)phenoxy)butyl)-1H-1,2,3-triazol-1-yl)-N-((1S)-3-(((2S)-3-methyl-1-((3R,4S)-4-methyl-2,5-dioxopyrrolidin-3-yl)-1-oxobutan-2-yl)amino)-3-oxo-1-phenylpropyl)undecanamide], for which, at ACC complex, the “dissociation from ACC with 1 and 3 together” value was “rapid dissociation”; the “dissociation from ACC with 1 alone” value is recorded as “little or no dissociation”.

On to `CC(C)[C@H](NC(=O)C[C@H](NC(=O)CCCCCCCCCCn1cc(CCCCOCCOCCOCCOc2ccc(Br)c(-c3cc4cnc(N)nc4nc3N)c2Br)nn1)c1ccccc1)C(=O)[C@@H]1C(=O)NC(=O)[C@H]1C` [Compound 16, 11-(4-(4-(2-(2-(2-(2,4-dibromo-3-(2,7-diaminopyrido[2,3-d]pyrimidin-6-yl)phenoxy)ethoxy)ethoxy)ethoxy)butyl)-1H-1,2,3-triazol-1-yl)-N-((1S)-3-(((2S)-3-methyl-1-((3R,4S)-4-methyl-2,5-dioxopyrrolidin-3-yl)-1-oxobutan-2-yl)amino)-3-oxo-1-phenylpropyl)undecanamide], for which, at ACC complex, the “dissociation from ACC with 1 and 3 together” value is on record as “rapid dissociation”; the “dissociation from ACC with 1 alone” value was “little or no dissociation”.

In the case of `CC(C)[C@H](NC(=O)C[C@H](NC(=O)CCCCCCCCCCn1cc(CCCCOCCOCCOCCOCCOCCOCCOc2ccc(Br)c(-c3cc4cnc(N)nc4nc3N)c2Br)nn1)c1ccccc1)C(=O)[C@@H]1C(=O)NC(=O)[C@H]1C` [Compound 17, 11-(4-(22-(2,4-dibromo-3-(2,7-diaminopyrido[2,3-d]pyrimidin-6-yl)phenoxy)-5,8,11,14,17,20-hexaoxadocos-1-yl)-1H-1,2,3-triazol-1-yl)-N-((1S)-3-(((2S)-3-methyl-1-((3R,4S)-4-methyl-2,5-dioxopyrrolidin-3-yl)-1-oxobutan-2-yl)amino)-3-oxo-1-phenylpropyl)undecanamide], the “dissociation from ACC with 1 and 3 together” value on ACC complex is recorded as “rapid dissociation”. In addition, on ACC complex (100 μM (100-fold excess) of 1 or 3 alone added to ACC-inhibitor complex), the “dissociation from ACC with 1 or 3 alone” value was “unable to displace; also recorded: No dissociation”. On E. coli ACC, the Ki worked out at 0.2 nM. The “MIC ΔtolC + PMBN” value with E. coli ΔtolC (PMBN included) amounted to 0.5 µg/mL. Also, the “MIC ΔtolC” value in the test with E. coli ΔtolC (without PMBN) came out at 4 µg/mL (≈ 3.02 µM).

Consider `CC(C)[C@H](NC(=O)C[C@H](NC(=O)CCCCCCCCCCn1cc(CCCCOCCOCCOCCOCCOCCOCCOc2cc(Br)c(-c3cc4cnc(N)nc4nc3N)c(Br)c2)nn1)c1ccccc1)C(=O)[C@@H]1C(=O)NC(=O)[C@H]1C` [Compound 17-p, 11-(4-(22-(3,5-dibromo-4-(2,7-diaminopyrido[2,3-d]pyrimidin-6-yl)phenoxy)-5,8,11,14,17,20-hexaoxadocos-1-yl)-1H-1,2,3-triazol-1-yl)-N-((1S)-3-(((2S)-3-methyl-1-((3R,4S)-4-methyl-2,5-dioxopyrrolidin-3-yl)-1-oxobutan-2-yl)amino)-3-oxo-1-phenylpropyl)undecanamide], for which, on E. coli ACC, the Ki stood at 3.53 nM.

Values taken from article PMC10303036 (Journal of medicinal chemistry, 2022).
